Reference: the supplement of paper PMC13380429

Columns and labels:
Settings in all cases: 72 h
HepG2 [1] = test: cell viability relative to DMSO; higher = less toxic
Vero E6 [2] = test: as above
U2OS [3] = test: as above
Calu-3 [4] = test: as above
Caco-2 [5] = test: as above
HepG2 [6] = test: relative viability EC50 (midpoint between 100% and the lowest measured viability); higher = less toxic
Vero E6 [7] = test: as above
U2OS [8] = test: as above
Calu-3 [9] = test: as above
Caco-2 [10] = test: as above
HepG2 [11] = test: drug sensitivity score (DSS) for viability; higher = more toxic; extreme values may be limits of the assay
Vero E6 [12] = test: as above
U2OS [13] = test: as above
Calu-3 [14] = test: as above
Caco-2 [15] = test: as above

Compound	cell viability (HepG2 [1]; 1 nM) [%]	cell viability (HepG2 [1]; 10 nM) [%]	cell viability (HepG2 [1]; 100 nM) [%]	cell viability (HepG2 [1]; 1000 nM) [%]	cell viability (HepG2 [1]; 10000 nM) [%]	cell viability (Vero E6 [2]; 1 nM) [%]	cell viability (Vero E6 [2]; 10 nM) [%]	cell viability (Vero E6 [2]; 100 nM) [%]	cell viability (Vero E6 [2]; 1000 nM) [%]	cell viability (Vero E6 [2]; 10000 nM) [%]	cell viability (U2OS [3]; 1 nM) [%]	cell viability (U2OS [3]; 10 nM) [%]	cell viability (U2OS [3]; 100 nM) [%]	cell viability (U2OS [3]; 1000 nM) [%]	cell viability (U2OS [3]; 10000 nM) [%]	cell viability (Calu-3 [4]; 1 nM) [%]	cell viability (Calu-3 [4]; 10 nM) [%]	cell viability (Calu-3 [4]; 100 nM) [%]	cell viability (Calu-3 [4]; 1000 nM) [%]	cell viability (Calu-3 [4]; 10000 nM) [%]	cell viability (Caco-2 [5]; 1 nM) [%]	cell viability (Caco-2 [5]; 10 nM) [%]	cell viability (Caco-2 [5]; 100 nM) [%]	cell viability (Caco-2 [5]; 1000 nM) [%]	cell viability (Caco-2 [5]; 10000 nM) [%]	relative viability EC50 (HepG2 [6]) [µM]	relative viability EC50 (Vero E6 [7]) [µM]	relative viability EC50 (U2OS [8]) [µM]	relative viability EC50 (Calu-3 [9]) [µM]	relative viability EC50 (Caco-2 [10]) [µM]	drug sensitivity score (HepG2 [11])	drug sensitivity score (Vero E6 [12])	drug sensitivity score (U2OS [13])	drug sensitivity score (Calu-3 [14])	drug sensitivity score (Caco-2 [15])
CONC(=N)c1ccc(-c2ccc(-c3ccc(C(=N)NOC)cc3)o2)cc1 [pafuramidine]	94.4	106	99.2	92.9	110	98.2	97.5	96	93.9	107	99.1	99.8	96.9	102	98.9	98.3	97.4	95.4	96	98.5	92.3	97	92.5	97.5	87.9	> 10	> 10	> 10	> 10	> 10	0	0	0	0	0
Nc1nc(O)c2ncn(CCC(CO)CO)c2n1 [penciclovir]	89.8	94.3	101	94.6	102	100	94.3	90	95.1	102	99.3	95.9	93.9	101	104	102	90.8	92	94.1	99.5	98.7	109	102	103	102	> 10	> 10	> 10	> 10	> 10	0	0	0	0	0
O=C(CCc1ccc(O)cc1)c1c(O)cc(O)cc1O [phloretin]	107	98.3	94.2	99.1	99.4	105	102	99.9	103	95.1	95.8	100	103	96.8	101	104	93.2	98.7	98	91.3	92.1	101	97.5	101	98.6	> 10	> 10	> 10	> 10	> 10	0	0	0	0	0
CC(C)[C@H](CO)Nc1nc(Nc2cccc(Cl)c2)c2ncn(C(C)C)c2n1 [purvalanol-A]	90.8	96.8	100	94.8	87.2	100	97.4	93.7	95.5	77.3	97.4	105	95.5	99	86.4	102	109	96.5	102	91.4	91.6	103	93.4	94.2	83.1	> 10	> 10	> 10	> 10	> 10	0.4	1.4	0.2	0	0.4
O=C(NC1CCNCC1)[C@@H]1CC[C@@H]2CN1C(=O)N2OS(=O)(=O)O [relebactam]	93.9	109	94.1	108	95.3	99.1	97.2	97.9	102	104	102	107	103	101	100	110	103	99	107	98.2	92.6	108	89.4	94.6	90	> 10	> 10	> 10	> 10	> 10	0	0	0	0	0.3
O=C(NCCCN1CCOCC1)c1cnn2c(-c3ccccc3)cc(-c3ccccc3)nc12 [reversan]	91.7	95.6	92.6	102	93.3	97.8	100	103	103	82.6	103	103	97.5	99.5	85.8	105	101	107	91.8	75.4	104	97	92.2	88.8	75.6	> 10	> 10	> 10	> 10	> 10	0	0.3	0.2	2	1.8
CO[C@H]1/C=C/O[C@@]2(C)Oc3c(C)c(O)c4c(O)c(c5c(nc6cc(C)ccn65)c4c3C2=O)NC(=O)/C(C)=C\C=C\[C@H](C)[C@H](O)[C@@H](C)[C@@H](O)[C@@H](C)[C@H](OC(C)=O)[C@@H]1C [rifaximin]	110	95.3	102	104	106	106	93.6	108	106	117	96.7	99.3	94.6	93.3	96.4	94.7	95	89	101	94.6	137	112	87	98.2	96.4	> 10	> 10	> 10	> 10	> 10	0	0	0	0	0
CN(CCOc1ccc(CC2SC(=O)NC2=O)cc1)c1ccccn1 (stereo not given) [rosiglitazone]	94.9	97.1	93.5	96.5	89.5	96.3	95.2	88.3	82.1	81.3	96.7	97.2	98.1	98.5	100	105	96.2	94.6	102	108	99.9	93	93.9	81.9	90.7	> 10	> 10	> 10	> 10	> 10	0	2.8	0	0	0.9
NCC(CS(=O)(=O)O)c1ccc(Cl)cc1 (stereo not given) [saclofen]	107	107	105	105	98	106	98.6	103	101	103	93.6	99.7	95.3	96.9	104	96.2	91.9	94.8	86.9	105	100	101	91	88.7	95.5	> 10	> 10	> 10	> 10	> 10	0	0	0	0	0.6
COC(=O)[C@@H]1C[C@H](OC(C)=O)C(=O)[C@H]2[C@@]1(C)CC[C@H]1C(=O)O[C@H](c3ccoc3)C[C@]21C [salvinorin-A]	88.2	106	105	98.2	101	98.5	108	106	91.8	98.4	97.9	101	93.1	97	97.3	110	91.3	97.5	107	109	112	112	101	101	97.2	> 10	> 10	> 10	> 10	> 10	0	0	0	0	0
C[n+]1cc2c3c(ccc2c2ccc4cc5c(cc4c21)OCO5)OCO3 [sanguinarium-chloride]	93	103	96.7	64.3	0	109	99.8	105	75.9	0.1	96.6	98.5	97	92.1	0.2	101	96.4	83.9	91.1	0.9	85.8	103	73.1	82.4	2.2	1.29	1.58	2.52	2.42	1.82	10.3	9.2	6.8	6.9	8.3
CCO[C@@H](Cc1ccc(OCCn2c(C)ccc2-c2ccc(SC)cc2)cc1)C(=O)O [saroglitazar]	97.3	95.5	88.4	97.1	104	99.5	96.3	88.1	87.8	95.2	102	89.1	101	97.5	93.9	93.3	80.3	97.6	89.9	105	92	92.8	122	93.7	100	> 10	> 10	> 10	> 10	> 10	0	1.2	0	0	0
CN1[C@@H]2C[C@@H](O)C[C@H]1[C@@H]1O[C@@H]12 [scopine]	97.2	99.7	96.7	99.8	97	104	108	106	106	98.8	98.4	93.4	96.1	96	102	102	90.1	98.8	103	103	104	93	96.1	98.3	105	> 10	> 10	> 10	> 10	> 10	0	0	0	0	0
COc1cc(C2Oc3cc([C@H]4Oc5cc(O)cc(O)c5C(=O)[C@@H]4O)ccc3OC2CO)ccc1O (stereo not given in full) [silibinin]	100	97.8	101	91.1	93.1	99.1	106	101	103	99.2	96	103	95.8	98.9	93.6	99.9	108	92.6	98.6	99.3	103	102	93	104	100	> 10	> 10	> 10	> 10	> 10	0	0	0	0	0
